In PMC5278949 (The Journal of organic chemistry, 2016) one finds IC50 data, which are given here for four compounds.

For this experiment, the target named is kappa opioid receptor (KOR) (Homo sapiens, UniProt P41145). Kind of experiment: GTPγS assay, antagonism of U69, […], concentration-response. Format: biochemical.
kappa opioid receptor (KOR), sequence (P41145 whole entry): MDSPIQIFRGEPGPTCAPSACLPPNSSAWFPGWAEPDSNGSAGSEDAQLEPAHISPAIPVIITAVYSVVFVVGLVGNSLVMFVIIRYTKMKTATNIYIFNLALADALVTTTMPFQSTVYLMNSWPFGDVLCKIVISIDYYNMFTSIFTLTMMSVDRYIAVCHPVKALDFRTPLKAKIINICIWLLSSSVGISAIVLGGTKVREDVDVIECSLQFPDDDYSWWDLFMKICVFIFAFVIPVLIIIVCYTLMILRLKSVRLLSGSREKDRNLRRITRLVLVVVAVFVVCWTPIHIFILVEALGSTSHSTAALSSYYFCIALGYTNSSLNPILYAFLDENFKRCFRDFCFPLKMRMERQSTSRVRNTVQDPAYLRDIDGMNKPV
As a reminder, the IC50 is the concentration at which inhibition is half-maximal. Higher therefore signals a need for much substance. In turn, `COc1ccc(N2CCN(CCCNC(=O)CN3C(=O)C4CCCCN4c4cc(C)cnc43)CC2)cc1` (racemic) [compound 28, N-(3-(4-(4-Methoxyphenyl)piperazin-1-yl)propyl)-2-(2-methyl-6-oxo-6,6a,7,8,9,10-hexahydro-5H-dipyrido[1,2-a:2′,3′-e]pyrazin-5-yl)acetamide] had an IC50 of 906 nM.
The compound `COc1ccc(N2CCN(CCCNC(=O)CN3C(=O)[C@@H]4CCCN4c4c(C)ccnc43)CC2)cc1` [compound 26, (S)-N-(3-(4-(4-Methoxyphenyl)piperazin-1-yl)propyl)-2-(1-methyl-6-oxo-6a,7,8,9-tetrahydropyrido[2,3-e]pyrrolo[1,2-a]pyrazin-5(6H)-yl)acetamide] had an IC50 of 2820 nM.
Consider `COc1ccc(N2CCN(CCCNC(=O)CN3C(=O)[C@@H]4CCCN4c4cc(C)cnc43)CC2)cc1` [compound 27, (S)-N-(3-(4-(4-Methoxyphenyl)piperazin-1-yl)propyl)-2-(2-methyl-6-oxo-6a,7,8,9-tetrahydropyrido[2,3-e]pyrrolo[1,2-a]pyrazin-5(6H)-yl)acetamide], for which the IC50 is 2620 nM.
Compound `COc1ccc(N2CCN(CCCNC(=O)CN3C(=O)[C@H](CC(C)C)Nc4cc(C)cnc43)CC2)cc1` [compound 29, (S)-2-(2-Isobutyl-7-methyl-3-oxo-2,3-dihydropyrido[2,3-b]-pyrazin-4(1H)-yl)-N-(3-(4-(4-methoxyphenyl)piperazin-1-yl)propyl)-acetamide] yielded an IC50 of 433 nM.
